Data taken from a compilation of properties of binary mixtures (doi:10.1021/jp071051m).

Assay: xn = mol fraction of the nth substance listed
Settings: 298.15 K, 101 kPa

CCCC[n+]1ccn(C)c1.O=C([O-])C(F)(F)F + CC#N
Settings | electrical conductivity [S/m] | viscosity [mPa·s]
x2 = 0 | 0.455 | 52.9
x2 = 0.0798 | 0.562 | 42.7
x2 = 0.1769 | 0.699 | 31.7
x2 = 0.3539 | 1.05 | 17.4
x2 = 0.4443 | 1.32 | 12.1
x2 = 0.547 | 1.69 | 7.61
x2 = 0.6553 | 2.19 | 4.38
x2 = 0.7649 | 2.76 | 2.27
x2 = 0.8457 | 3.06 | 1.19
x2 = 0.8802 | 3.09 | 1.09

CCCC[n+]1ccn(C)c1.F[P-](F)(F)(F)(F)F + CC(C)=O
Settings | electrical conductivity [S/m] | viscosity [mPa·s]
x2 = 0 | 0.157 | 260
x2 = 0.1006 | 0.256 | 148
x2 = 0.1935 | 0.389 | 89
x2 = 0.3033 | 0.612 | 48.4
x2 = 0.3988 | 0.89 | 27.4
x2 = 0.6016 | 1.81 | 7.36
x2 = 0.6992 | 2.38 | 3.76
x2 = 0.8433 | 3.11 | 1.34
x2 = 0.8853 | 3.12 | 1.02

ClCCl + CCCC[n+]1ccn(C)c1.F[P-](F)(F)(F)(F)F
Settings | electrical conductivity [S/m] | viscosity [mPa·s]
x1 = 0.0753 | 0.213 | 180
x1 = 0.163 | 0.294 | 129
x1 = 0.3361 | 0.533 | 58.2
x1 = 0.5384 | 0.97 | 18.7
x1 = 0.6462 | 1.24 | 9.5
x1 = 0.738 | 1.43 | 5
x1 = 0.8242 | 1.42 | 2.57
x1 = 0.8678 | 1.3 | 1.82

CCCC[n+]1ccn(C)c1.F[P-](F)(F)(F)(F)F + CCOC(C)=O
Settings | electrical conductivity [S/m] | viscosity [mPa·s]
x2 = 0 | 0.157 | 260
x2 = 0.0883 | 0.229 | 167
x2 = 0.1793 | 0.326 | 101
x2 = 0.4691 | 0.771 | 21
x2 = 0.5703 | 0.96 | 11.3
x2 = 0.6738 | 1.1 | 5.69
x2 = 0.8339 | 0.96 | 2.07

CCCC[n+]1ccn(C)c1.O=C([O-])C(F)(F)F + ClC(Cl)Cl
Settings | electrical conductivity [S/m] | viscosity [mPa·s]
x2 = 0 | 0.455 | 52.9
x2 = 0.0918 | 0.507 | 46.4
x2 = 0.1815 | 0.558 | 40.4
x2 = 0.2793 | 0.618 | 33.7
x2 = 0.3861 | 0.692 | 25.9
x2 = 0.482 | 0.766 | 19.3
x2 = 0.5804 | 0.85 | 13
x2 = 0.6467 | 0.89 | 9.7
x2 = 0.6812 | 0.9 | 7.85
x2 = 0.729 | 0.89 | 6.06
x2 = 0.7847 | 0.826 | 4.02
x2 = 0.8677 | 0.603 | 2.02

CCCC[n+]1ccn(C)c1.F[P-](F)(F)(F)(F)F + ClCCl
x2 = 0
Settings | electrical conductivity [S/m] | viscosity [mPa·s]
– | 0.157 | 260

CCCC[n+]1ccn(C)c1.O=C([O-])C(F)(F)F + O
Settings | electrical conductivity [S/m] | viscosity [mPa·s]
x2 = 0 | 0.455 | 52.9
x2 = 0.1093 | 0.543 | 46.3
x2 = 0.197 | 0.619 | 40.9
x2 = 0.2888 | 0.713 | 35.5
x2 = 0.396 | 0.88 | 29.2
x2 = 0.4921 | 1.07 | 23.8
x2 = 0.5897 | 1.34 | 18.7
x2 = 0.6918 | 1.72 | 13.6
x2 = 0.7927 | 2.38 | 9
x2 = 0.884 | 3.14 | 5.13
x2 = 0.9195 | 3.34 | 3.67

CCCC[n+]1ccn(C)c1.F[P-](F)(F)(F)(F)F + c1ccncc1
Settings | electrical conductivity [S/m] | viscosity [mPa·s]
x2 = 0 | 0.157 | 260
x2 = 0.0964 | 0.222 | 161
x2 = 0.1929 | 0.308 | 102
x2 = 0.291 | 0.435 | 63.4
x2 = 0.3899 | 0.599 | 38
x2 = 0.5922 | 1.11 | 12.1
x2 = 0.6978 | 1.43 | 6.35
x2 = 0.7695 | 1.63 | 3.73
x2 = 0.8372 | 1.73 | 2.42
x2 = 0.8781 | 1.68 | 1.94
